Results taken from ChEMBL document CHEMBL1201862, “PubChem BioAssay data set” (2004).
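96-well plates; 48 h exposure; 5 concentrations. Endpoints by linear interpolation between flanking doses. Not reached: highest tested concentration assigned. Here, GI50 denotes the concentration required for 50% inhibition of growth.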 The source made the active and inactive calls. No stated cut-off is given here; in the data, active = GI50 up to about 1.1 µM and inactive = higher.

Key:
Test in all cases: NCI-60 cell line screen, 48 h
EKVX = tested on: EKVX
UACC-257 = tested on: UACC-257
786-0 = tested on: 786-0
Hs-578T = tested on: Hs-578T
SNB-19 = tested on: SNB-19
HL-60 = tested on: HL-60
SK-MEL-2 = tested on: SK-MEL-2
CAKI-1 = tested on: CAKI-1
UO-31 = tested on: UO-31
OVCAR-8 = tested on: OVCAR-8
MDA-MB-435 = tested on: MDA-MB-435
HCT-15 = tested on: HCT-15
DU-145 = tested on: DU-145
NCI/ADR-RES = tested on: NCI/ADR-RES
ACHN = tested on: ACHN
KM12 = tested on: KM12
MDA-N = tested on: MDA-N
SK-MEL-5 = tested on: SK-MEL-5
MOLT-4 = tested on: MOLT-4
K562 = tested on: K562

Structure (SMILES)	GI50 (EKVX)	GI50 (UACC-257)	GI50 (786-0)	GI50 (Hs-578T)	GI50 (SNB-19)	GI50 (HL-60)	GI50 (SK-MEL-2)	GI50 (CAKI-1)	GI50 (UO-31)	GI50 (OVCAR-8)	GI50 (MDA-MB-435)	GI50 (HCT-15)	GI50 (DU-145)	GI50 (NCI/ADR-RES)	GI50 (ACHN)	GI50 (KM12)	GI50 (MDA-N)	GI50 (SK-MEL-5)	GI50 (MOLT-4)	GI50 (K562)
Cc1[nH]c2ccccc2c1/C=N/c1ccc(/N=C/c2c(C)[nH]c3ccccc23)cc1	38.9 µM (inactive)	67.3 µM (inactive)	18.8 µM (inactive)	47 µM (inactive)	61.9 µM (inactive)	14.7 µM (inactive)	23.9 µM (inactive)	38.7 µM (inactive)	77.4 µM (inactive)	29.7 µM (inactive)	19.7 µM (inactive)	32 µM	37.4 µM (inactive)	80.5 µM (inactive)	49.1 µM (inactive)	16.4 µM (inactive)	30.5 µM (inactive)	17.2 µM (inactive)	18.9 µM (inactive)	21.2 µM (inactive)
CC(=O)OC1C(Oc2c(C)cc3c(c2O)[C@@H](C)CC[C@@H]3[C@@H](C)CCC=C(C)C)OCC(O)C1O (some centres undefined)		18.4 µM (inactive)	18.4 µM (inactive)	21.5 µM (inactive)	19.6 µM (inactive)	21.4 µM (inactive)	25.3 µM (inactive)	19.5 µM (inactive)	17.3 µM (inactive)	21.9 µM (inactive)	14.6 µM (inactive)	17.5 µM	16.2 µM (inactive)	21.1 µM (inactive)	20.2 µM (inactive)	15.9 µM (inactive)	21 µM (inactive)	18.1 µM (inactive)	22.6 µM (inactive)	13.5 µM (inactive)
O=[N+]([O-])C(=C/c1cccs1)/C(=C\c1cccs1)[N+](=O)[O-]	2.29 µM (inactive)	1.29 µM (inactive)	0.298 µM (active)	1.13 µM (inactive)	1.98 µM (inactive)	0.0246 µM (active)	1.75 µM (inactive)	0.465 µM (active)	1.2 µM (inactive)	0.342 µM (active)	0.441 µM (active)	0.199 µM	1.43 µM (inactive)	0.54 µM (active)	0.543 µM (active)	2.34 µM (inactive)	0.423 µM (active)	1.08 µM (active)	0.157 µM (active)	0.272 µM (active)
COC1/C=C/C(C)C(C(C)C(OC)C(C)CCC(=O)C(C)C(CC(=O)O)OC)OC(=O)/C=C/C=C(\C)CC(OC)CC2=CC(=O)O[C@H](C2)C(C)C(OC)CC(OC)/C=C/C(C)C(OC)C1 (some centres undefined)	0.396 µM (active)	0.449 µM (active)	0.286 µM (active)	0.0759 µM (active)	0.441 µM (active)	0.118 µM (active)	0.265 µM (active)	0.0621 µM (active)	0.458 µM (active)	1.14 µM (inactive)	0.265 µM (active)	0.885 µM	0.548 µM (active)	2.66 µM (inactive)	0.562 µM (active)	0.452 µM (active)	0.841 µM (active)	0.455 µM (active)	1.46 µM (inactive)	1.79 µM (inactive)
CC1=NN(C(=O)CC(=O)Nc2ccc(C)cc2)C(=O)C1/N=N\c1ccc(S(=O)(=O)c2ccc(/N=N/C3C(=O)N(C(=O)CC(=O)Nc4ccc(C)cc4)N=C3C)cc2)cc1 (centres undefined)	> 100 µM (inactive)	> 100 µM (inactive)	21 µM (inactive)	93.8 µM (inactive)	> 100 µM (inactive)	16.4 µM (inactive)	58.6 µM (inactive)	> 100 µM (inactive)	> 100 µM (inactive)	64.6 µM (inactive)	84.3 µM (inactive)	44.6 µM	> 100 µM (inactive)	> 100 µM (inactive)	62.8 µM (inactive)	65.6 µM (inactive)	69.7 µM (inactive)	58.9 µM (inactive)	42.5 µM (inactive)	4.98 µM (inactive)
CS(=O)(=O)CS(=O)(=O)OCCCl	366 µM (inactive)	169 µM (inactive)	61.2 µM (inactive)	272 µM (inactive)	96.4 µM (inactive)	136 µM (inactive)	304 µM (inactive)	207 µM (inactive)	348 µM (inactive)	191 µM (inactive)	991 µM (inactive)	209 µM	199 µM (inactive)	324 µM (inactive)	124 µM (inactive)	339 µM (inactive)	107 µM (inactive)	211 µM (inactive)	96.2 µM (inactive)	216 µM (inactive)
CCOC1OC(=O)c2cc3ccc4c(c3c(-c3ccc5c(c3)OCO5)c21)OCO4 (centres undefined)	3.54 µM (inactive)	9.79 µM (inactive)	9.06 µM (inactive)	3.2 µM (inactive)	8.95 µM (inactive)	9.91 µM (inactive)	12.8 µM (inactive)	4.48 µM (inactive)	22 µM (inactive)	35.7 µM (inactive)	3.04 µM (inactive)	4.85 µM	70.5 µM (inactive)	5.13 µM (inactive)	10.4 µM (inactive)	4.58 µM (inactive)	1.9 µM (inactive)	2.72 µM (inactive)	6.05 µM (inactive)	7.6 µM (inactive)
S=C1NCCN1C(=S)NC1CCCCC1	29.1 µM (inactive)	26.2 µM (inactive)	37.9 µM (inactive)	21.2 µM (inactive)		40.7 µM (inactive)	34.8 µM (inactive)	25.4 µM (inactive)	26.7 µM (inactive)	47.6 µM (inactive)	26.2 µM (inactive)	29 µM	49.8 µM (inactive)	29.2 µM (inactive)	32.7 µM (inactive)	24.4 µM (inactive)	36.9 µM (inactive)	22.2 µM (inactive)	21.1 µM (inactive)	36.8 µM (inactive)
Cc1nnc(N/N=C2/C(=O)Nc3ccccc32)nc1O	> 100 µM (inactive)	> 100 µM (inactive)	> 100 µM (inactive)	> 100 µM (inactive)	> 100 µM (inactive)	> 100 µM (inactive)	> 100 µM (inactive)		> 100 µM (inactive)	> 100 µM (inactive)	> 100 µM (inactive)	> 100 µM	> 100 µM (inactive)	> 100 µM (inactive)	> 100 µM (inactive)	> 100 µM (inactive)	> 100 µM (inactive)		> 100 µM (inactive)	> 100 µM (inactive)
O=C(CCNC(=O)OCc1ccccc1)OCCCNC(=O)OCc1ccccc1		> 100 µM (inactive)	> 100 µM (inactive)	> 100 µM (inactive)	> 100 µM (inactive)	> 100 µM (inactive)			> 100 µM (inactive)	> 100 µM (inactive)	> 100 µM (inactive)	> 100 µM	> 100 µM (inactive)	> 100 µM (inactive)	> 100 µM (inactive)	> 100 µM (inactive)	> 100 µM (inactive)	> 100 µM (inactive)	> 100 µM (inactive)	> 100 µM (inactive)
C[C@]12OC[C@H](c3ccccc3)N1C(=O)C1[C@H]2CC12SCCS2 (some centres undefined)	> 100 µM (inactive)	> 100 µM (inactive)	> 100 µM (inactive)	> 100 µM (inactive)	> 100 µM (inactive)		> 100 µM (inactive)	> 100 µM (inactive)	> 100 µM (inactive)	> 100 µM (inactive)	> 100 µM (inactive)	> 100 µM	> 100 µM (inactive)	> 100 µM (inactive)	> 100 µM (inactive)	> 100 µM (inactive)	> 100 µM (inactive)	> 100 µM (inactive)	> 100 µM (inactive)	> 100 µM (inactive)
Nc1nc(=O)n(C2CC(O)C(CO)O2)c2nc(-c3ccc(-c4ccccc4)cc3)cnc12 (centres undefined)	96.4 µM (inactive)	> 100 µM (inactive)	40.1 µM (inactive)	36.3 µM (inactive)	29 µM (inactive)		44.6 µM (inactive)	> 100 µM (inactive)	> 100 µM (inactive)	67.9 µM (inactive)	97.7 µM (inactive)	> 100 µM	> 100 µM (inactive)	> 100 µM (inactive)	> 100 µM (inactive)	> 10 µM (inactive)	58.2 µM (inactive)	15.9 µM (inactive)	25.9 µM (inactive)	38 µM (inactive)
CN(C(=O)Cc1cccc(N=C=S)c1)[C@H]1CCCC[C@@H]1N1CCCC1	18.1 µM (inactive)	13.5 µM (inactive)	15.1 µM (inactive)	25.3 µM (inactive)	20.6 µM (inactive)		18.7 µM (inactive)	15.4 µM (inactive)	14.7 µM (inactive)	16.2 µM (inactive)	13.9 µM (inactive)	14.5 µM	14.6 µM (inactive)	24.8 µM (inactive)	14.1 µM (inactive)	17.9 µM (inactive)	14.1 µM (inactive)	5.73 µM (inactive)	5.24 µM (inactive)	7.59 µM (inactive)
COc1ccc2c(c1)N(CCC1CCCCN1C)c1ccccc1S2 (centres undefined) [OXYRIDAZINE]	19.4 µM (inactive)	5.08 µM (inactive)	13.1 µM (inactive)	10.3 µM (inactive)	15.2 µM (inactive)	9.14 µM (inactive)	14.7 µM (inactive)	9.48 µM (inactive)		15 µM (inactive)	7.62 µM (inactive)	13.4 µM	13.2 µM (inactive)	12 µM (inactive)	13.8 µM (inactive)	10.8 µM (inactive)	12 µM (inactive)	10.8 µM (inactive)	4.85 µM (inactive)	4.37 µM (inactive)
